According to patent US20240239735A1, “ACID ADDITION SALT OF ROCK INHIBITOR, AND CRYSTAL FORM, COMPOSITION AND PHARMACEUTICAL USE THEREOF” (WUHAN LL SCIENCE AND TECHNOLOGY DEVELOPMENT CO., LTD., priority 2021, published 2024):
≈ marks a conversion by molar mass, not a printed value. Like-named read-outs stand apart in the source and are kept apart here.

Columns and labels:
[1] = Pharmacokinetic study in SD rats, intragastric administration; assay type: in vivo; details: for Cmax: compound A in plasma; for Exposure of compound A relative to administration of the free base: same dose
Experimental: In the experiment, 12 SD rats (purchased from Beijing Vital River Laboratory Animal Technology Co., Ltd.) weighing 180-280 g, half male and female, were used. The animals were randomly divided into four groups of 3 animals each, with female rats in the first and third groups and male rats in the second and fourth groups.
Blood was collected from the orbital venous plexus of rats at various time points (0.167 h, 0.5 h, 1 h, 2 h, 3 h, 4 h, 6 h, 9 h, 12 h, and 24 h) after administration. The concentration of compound A in the plasma was determined.
Data will be analyzed by a non-compartmental model using WinNonlin (version 5.2.1 Pharsight, Mountain View, CA) to obtain PK parameters (parameters selected for different routes of administration, such as C0, Cmax, Tmax, AUC0-last, AUCinf, T1/2, CL, and Vz).

[2] = Solubility test in biologically relevant media at 37° C. (HPLC, pH, XRPD of filter cake); assay type: physicochemical
Experimental: (§1) The instrument used for HIPLC analysis was Agilent TIPLC 1260 series.
The suspension was incubated by shaking on a shaker at 100 rpm at 37° C. 1 mL of the dispersion was taken at 0.5 h, 2 h, and 24 h, and filtered. The filtrate was tested for the solubility by HPLC and for the pH value by a pH meter. The filter cake was characterized for the crystal form by XRPD.

[3] = Hygroscopicity test by dynamic vapor sorption (DVS); assay type: physicochemical; details: for DVS weight gain (Wt. gain %): 25° C.; for Hygroscopicity: DVS, assessment in words
Experimental: The sample was subjected to water adsorption/desorption tests using a Vsorp (ProUmid GmbH & Co. KG, Germany) water adsorption analyzer. The sample was placed in a tared sample tray, and the change in the sample mass with humidity (0-90% RH) at 25° C. was recorded.

[4] = Solid state stability test (HPLC purity, XRPD); assay type: physicochemical; details: for Initial purity (Area %): 0 weeks; for Initial purity (Area %) / Purity (Area %): 265 nm; for Physical and chemical stability: 60° C./sealed and 40° C./75% RH open
Experimental: as §1
The samples after being stored 0 days, 1 week, and 2 weeks were taken and each dissolved in a diluent to prepare about 1.0 mg/mL solution, which was tested for chemical stability by HPLC. The solid sample after being stored for 1 week or 2 weeks was tested for physical stability by XRPD.

[5] = female SD rats, 20 mg/kg in 5% TPGS, 20 mg/kg
[6] = male, SD, rat, plasma, po, 20 mg/kg, male SD rats, 20 mg/kg in 5% TPGS
[7] = SGF medium, 0.5 h, rounded values
[8] = female, SD, rat, plasma, po, 20 mg/kg, female SD rats, 20 mg/kg in 5% TPGS
[9] = male SD rats, 20 mg/kg in 5% TPGS, 20 mg/kg

COc1cccc(CNC(=O)N2CCc3cc(-c4c[nH]nc4N)c(F)cc32)c1 [Fumarate crystal form I]
AUCinf [1, 5]: 33018 ± 1303 ng·h/mL | AUClast [1, 5]: 32884 ± 1318 ng·h/mL | T1/2 [1, 5]: 3.01 ± 0.22 h | Tmax [1, 5]: 0.83 ± 0.17 h | Cmax [1, 5]: 6357 ± 342 ng/mL | Exposure of compound A relative to administration of the free base ([1]; female rats): 2.23 times | Exposure of compound A relative to administration of the free base ([1]; male rats): 1.22 times | AUC(0-inf) [1, 6]: 24100 ± 2900 ng·h/mL | AUC(0-t) [1, 6]: 23900 ± 2930 ng·h/mL | half-life [1, 6]: 3.44 ± 0.29 h | Cmax ([1]; male, SD, rat, plasma, po, 20 mg/kg, male SD rats, 20 mg/kg in 5% TPGS, read-out: Cmax): 3050 ± 198 ng/mL | Tmax ([1]; male, SD, rat, plasma, po, 20 mg/kg, male SD rats, 20 mg/kg in 5% TPGS, read-out: Tmax): 0.67 ± 0.17 h | Crystal form during the solubility test ([2]; 0.5 h, FaSSIF and FeSSIF media): dissociated into the free base crystal form II | Solubility relative to free base crystal form II ([2]; 0.5 h, all three biologically relevant media): about twice | Solubility ([2]; FaSSIF, 37° C., 0.5 h): 12.19 µg/mL | Solubility ([2]; FaSSIF, 37° C., 2 h): 3.57 µg/mL | Solubility ([2]; FaSSIF, 37° C., 24 h): 4.25 µg/mL | pH of filtrate ([2]; FaSSIF, 24 h (0 h: 6.50)): 5.96 | Solubility ([2]; FeSSIF, 37° C., 0.5 h): 109.2 µg/mL | Solubility ([2]; FeSSIF, 37° C., 2 h): 75.30 µg/mL | Solubility ([2]; FeSSIF, 37° C., 24 h): 61.39 µg/mL | pH of filtrate ([2]; FeSSIF, 24 h (0 h: 5.00)): 4.90 | Solubility [2, 7]: 1900 µg/mL | Solubility ([2]; SGF, 37° C., 0.5 h): 1899 µg/mL | Solubility ([2]; SGF, 37° C., 2 h): 2135 µg/mL | Solubility ([2]; SGF, 37° C., 24 h): 2146 µg/mL | XRPD (crystal form of filter cake) ([2]; SGF, 37° C., 24 h): Trace solid | pH of filtrate ([2]; SGF, 24 h (0 h: 1.20)): 1.29 | XRPD pattern / crystal form before and after the DVS test [3]: crystal form remained unchanged | DVS weight gain (Wt. gain %) ([3]; 0.0% RH to 80% RH): <0.2% | DVS weight gain (Wt. gain %) ([3]; 0.0% RH to 80% RH, listed as fumarate crystal form I): < 0.2% | DVS weight gain (Wt. gain %) ([3]; 0.0% RH to 90% RH): <0.2% | DVS weight gain (Wt. gain %) ([3]; 0.0% RH to 90% RH, listed as fumarate crystal form I): < 0.2% | Hygroscopicity [3]: non-hygroscopic | Initial purity (Area %) ([4]; HPLC method of 7-day test): 99.85 Area % | Initial purity (Area %) ([4]; HPLC method of 14-day test): 99.73 Area % | Purity (Area %) ([4]; 1 week, 40° C./75% RH open): 99.85 Area % | Purity (Area %) ([4]; 1 week, 60° C./sealed): 99.86 Area % | Purity (Area %) ([4]; 2 weeks, 40° C./75% RH open): 99.74 Area % | Purity (Area %) ([4]; 2 weeks, 60° C./sealed): 99.75 Area % | Physical and chemical stability ([4]; one week): physically and chemically stable | Physical and chemical stability ([4]; two weeks): physically and chemically stable

COc1cccc(CNC(=O)N2CCc3cc(-c4c[nH]nc4N)c(F)cc32)c1 [Free base crystal form II, 5-(3-amino-1H-pyrazol-4-yl)-6-fluoro-N-(3-methoxybenzyl)indoline-1-carboxamide]
AUClast [1, 5]: 14778 ± 3318 ng·h/mL | AUC(0-inf) [1, 8]: 18160 ± 150 ng·h/mL | half-life [1, 8]: 2.88 ± 0.46 h | Cmax ([1]; female, SD, rat, plasma, po, 20 mg/kg, female SD rats, 20 mg/kg in 5% TPGS, read-out: Cmax): 3620 ± 321 ng/mL | Tmax ([1]; female, SD, rat, plasma, po, 20 mg/kg, female SD rats, 20 mg/kg in 5% TPGS, read-out: Tmax): 0.67 ± 0.17 h | AUCinf [1, 9]: 19790 ± 2233 ng·h/mL | AUClast [1, 9]: 19604 ± 2132 ng·h/mL | T1/2 [1, 9]: 3.33 ± 0.40 h | Tmax [1, 9]: 1.00 ± 0.00 h | Cmax [1, 9]: 3297 ± 676 ng/mL | Solubility ([2]; FaSSIF, 37° C., 0.5 h): 8.24 µg/mL (≈ 21.6 µM) | Solubility ([2]; FaSSIF, 37° C., 2 h): 5.14 µg/mL (≈ 13.5 µM) | Solubility ([2]; FaSSIF, 37° C., 24 h): 6.44 µg/mL (≈ 16.9 µM) | XRPD (crystal form of filter cake) ([2]; FaSSIF, 37° C., 24 h): Remains unchanged | XRPD (crystal form of filter cake) ([2]; FaSSIF, 37° C., 24 h, listed as free base crystal form II): remained unchanged | pH of filtrate ([2]; FaSSIF, 24 h (0 h: 6.50)): 6.49 | Solubility ([2]; FeSSIF, 37° C., 0.5 h): 33.38 µg/mL (≈ 87.5 µM) | Solubility ([2]; FeSSIF, 37° C., 2 h): 42.87 µg/mL (≈ 112 µM) | Solubility ([2]; FeSSIF, 37° C., 24 h): 48.68 µg/mL (≈ 128 µM) | XRPD (crystal form of filter cake) ([2]; FeSSIF, 37° C., 24 h): Remains unchanged | XRPD (crystal form of filter cake) ([2]; FeSSIF, 37° C., 24 h, listed as free base crystal form II): remained unchanged | pH of filtrate ([2]; FeSSIF, 24 h (0 h: 5.00)): 4.99 | Solubility [2, 7]: 1000 µg/mL (≈ 2620 µM) | Solubility ([2]; SGF, 37° C., 0.5 h): 1010 µg/mL (≈ 2650 µM) | Solubility ([2]; SGF, 37° C., 2 h): 1027 µg/mL (≈ 2690 µM) | Solubility ([2]; SGF, 37° C., 24 h): 1167 µg/mL (≈ 3060 µM) | XRPD (crystal form of filter cake) ([2]; SGF, 37° C., 24 h): Remains unchanged | XRPD (crystal form of filter cake) ([2]; SGF, 37° C., 24 h, listed as free base crystal form II): remained unchanged | pH of filtrate ([2]; SGF, 24 h (0 h: 1.20)): 1.29 | XRPD pattern / crystal form before and after the DVS test [3]: crystal form remained unchanged | DVS weight gain (Wt. gain %) ([3]; 0.0% RH to 80% RH): 1.3% | DVS weight gain (Wt. gain %) ([3]; 0.0% RH to 90% RH): 1.5% | Hygroscopicity [3]: slightly hygroscopic | Initial purity (Area %) ([4]; HPLC method of 7-day test): 98.62 Area % | Initial purity (Area %) ([4]; HPLC method of 14-day test): 99.83 Area % | Purity (Area %) ([4]; 1 week, 40° C./75% RH open): 98.62 Area % | Purity (Area %) ([4]; 1 week, 60° C./sealed): 98.64 Area % | Purity (Area %) ([4]; 2 weeks, 40° C./75% RH open): 99.83 Area % | Purity (Area %) ([4]; 2 weeks, 60° C./sealed): 99.83 Area % | Physical and chemical stability ([4]; one week): physically and chemically stable | Physical and chemical stability ([4]; two weeks): physically and chemically stable

COc1cccc(CNC(=O)N2CCc3cc(-c4c[nH]nc4N)c(F)cc32)c1 [Oxalate crystal form I]
Solubility ([2]; FaSSIF, 37° C., 0.5 h): 19.34 µg/mL | Solubility ([2]; FaSSIF, 37° C., 2 h): 12.35 µg/mL | Solubility ([2]; FaSSIF, 37° C., 24 h): 13.41 µg/mL | XRPD (crystal form of filter cake) ([2]; FaSSIF, 37° C., 24 h): partially dissociated into the free base crystal form II | pH of filtrate ([2]; FaSSIF, 24 h (0 h: 6.50)): 5.94 | Solubility ([2]; FeSSIF, 37° C., 0.5 h): 96.23 µg/mL | Solubility ([2]; FeSSIF, 37° C., 2 h): 194.1 µg/mL | Solubility ([2]; FeSSIF, 37° C., 24 h): 255.4 µg/mL | XRPD (crystal form of filter cake) ([2]; FeSSIF, 37° C., 24 h): Remains unchanged | XRPD (crystal form of filter cake) ([2]; FeSSIF, 37° C., 24 h, listed as oxalate crystal form I): remained unchanged | pH of filtrate ([2]; FeSSIF, 24 h (0 h: 5.00)): 4.94 | Solubility [2, 7]: 70 µg/mL | Solubility ([2]; SGF, 37° C., 0.5 h): 73.75 µg/mL | Solubility ([2]; SGF, 37° C., 2 h): 123.4 µg/mL | Solubility ([2]; SGF, 37° C., 24 h): 139.9 µg/mL | XRPD (crystal form of filter cake) ([2]; SGF, 37° C., 24 h): Remains unchanged | XRPD (crystal form of filter cake) ([2]; SGF, 37° C., 24 h, listed as oxalate crystal form I): remained unchanged | pH of filtrate ([2]; SGF, 24 h (0 h: 1.20)): 1.24 | XRPD pattern / crystal form before and after the DVS test [3]: crystal form remained unchanged | DVS weight gain (Wt. gain %) ([3]; 0.0% RH to 80% RH): 2.3% | DVS weight gain (Wt. gain %) ([3]; 0.0% RH to 90% RH): 3.1% | Hygroscopicity [3]: slightly hygroscopic | Initial purity (Area %) ([4]; HPLC method of 7-day test): 96.97 Area % | Purity (Area %) ([4]; 1 week, 40° C./75% RH open): 96.97 Area % | Purity (Area %) ([4]; 1 week, 60° C./sealed): 96.13 Area % | Physical and chemical stability ([4]; one week): degraded
